Paper PMC10022894, “Plant and prokaryotic TIR domains generate distinct cyclic ADPR NADase products” (Science Advances, 2023)

Legend:
Type in all cases: biochemical
AbTIR = biological target: T1, AbTIR (Acinetobacter baumannii, UniProt A0A009IHW8); assay: in vitro NADase assay on bead-bound protein, LC-MS; settings: […] NAD+, ~[…] C, […] h
T1 construct: gene J512_3302; core TIR domain, residues 157-292; N-terminal Strep II and C-terminal 6xHis tags (pET30a+), E. coli BL21(DE3); catalytic E208

HopAM1 = biological target: T2, HopAM1 (Pseudomonas syringae group genomosp. 3, UniProt Q877R9); assay: in vitro NADase assay on bead-bound protein, LC-MS; settings: […] NAD+, ~[…] C, […] h
T2 construct: gene hopAM1-1; TIR effector; N-terminal Strep II and C-terminal 6xHis tags (pET30a+), E. coli BL21(DE3)

ThsA = biological target: T3, ThsA (Bacillus cereus, UniProt J8G6Z1); assay: in vitro NAD+ consumption; settings: stimulated by NADase products of ThsB-Auto
T3 construct: SIR2-type NADase with C-terminal SLOG domain; in vitro preparation not described in main text

BdTIR = biological target: T4, BdTIR (Brachypodium distachyon, UniProt I1GTC2); assay: in vitro NADase assay on bead-bound protein, LC-MS; settings: […] NAD+, ~[…] C, […] h
T4 construct: gene BRADI_1g24377v3; TIR-only protein; N-terminal Strep II and C-terminal 6xHis tags (pET30a+), E. coli BL21(DE3); catalytic E127
T4 sequence (I1GTC2 1-224): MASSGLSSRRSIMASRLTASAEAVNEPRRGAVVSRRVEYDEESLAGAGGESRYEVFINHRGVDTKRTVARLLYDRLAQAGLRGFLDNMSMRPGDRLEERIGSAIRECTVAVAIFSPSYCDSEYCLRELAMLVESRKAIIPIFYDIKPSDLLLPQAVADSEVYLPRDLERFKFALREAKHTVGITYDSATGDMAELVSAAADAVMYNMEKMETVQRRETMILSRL

T3 sequence (J8G6Z1 whole entry, the tested form may be a part): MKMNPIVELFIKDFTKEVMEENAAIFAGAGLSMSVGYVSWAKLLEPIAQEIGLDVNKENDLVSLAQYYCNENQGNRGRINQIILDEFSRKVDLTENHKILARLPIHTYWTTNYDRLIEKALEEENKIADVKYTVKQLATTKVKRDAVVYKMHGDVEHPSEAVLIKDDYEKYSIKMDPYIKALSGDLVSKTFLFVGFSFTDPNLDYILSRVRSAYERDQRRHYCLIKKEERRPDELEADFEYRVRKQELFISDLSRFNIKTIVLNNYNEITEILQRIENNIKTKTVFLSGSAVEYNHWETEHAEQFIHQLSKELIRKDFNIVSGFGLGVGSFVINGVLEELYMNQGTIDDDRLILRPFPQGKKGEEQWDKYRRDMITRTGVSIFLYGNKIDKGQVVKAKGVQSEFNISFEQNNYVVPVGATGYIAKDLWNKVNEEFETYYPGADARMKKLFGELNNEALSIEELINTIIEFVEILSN
T1 sequence (A0A009IHW8 134-269): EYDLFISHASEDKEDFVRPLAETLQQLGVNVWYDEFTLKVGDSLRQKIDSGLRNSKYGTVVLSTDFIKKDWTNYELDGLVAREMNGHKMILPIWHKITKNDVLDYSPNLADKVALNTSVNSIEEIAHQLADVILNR
T2 sequence (Q877R9 whole entry): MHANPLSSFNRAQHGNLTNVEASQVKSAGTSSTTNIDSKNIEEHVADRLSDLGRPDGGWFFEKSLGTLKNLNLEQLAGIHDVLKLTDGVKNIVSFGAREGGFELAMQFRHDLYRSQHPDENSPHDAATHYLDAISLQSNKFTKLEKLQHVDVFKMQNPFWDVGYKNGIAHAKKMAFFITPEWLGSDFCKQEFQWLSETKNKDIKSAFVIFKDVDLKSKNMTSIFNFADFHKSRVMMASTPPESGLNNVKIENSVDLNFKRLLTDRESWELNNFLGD

NC(=O)c1ccc[n+]([C@@H]2O[C@H](COP(=O)(O)OP(=O)(O)OC[C@H]3O[C@@H](n4cnc5c(N)ncnc54)[C@H](O)[C@@H]3O)[C@@H](O)[C@H]2O)c1 [NAD^+]
in vitro NADase assay on bead-bound protein, LC-MS (AbTIR): we compared the in vitro NADase products of ThsB-Auto, BdTIR, AbTIR, and HopAM1
in vitro NADase assay on bead-bound protein, LC-MS (HopAM1): we compared the in vitro NADase products of ThsB-Auto, BdTIR, AbTIR, and HopAM1
in vitro NAD+ consumption (ThsA): NADase products of ThsB-Auto could stimulate NAD^+ consumption by ThsA in vitro
in vitro NADase assay on bead-bound protein, LC-MS (BdTIR): we compared the in vitro NADase products of ThsB-Auto, BdTIR, AbTIR, and HopAM1
